Reference: US20050032111A1, “Cadherin-11 as an indicator of viable pregnancy” (priority 1997, published 2005)
Several values for one entry are separate records, joined by “and”; a condition that tells them apart may be missing. Identical values can stand only once. Entries after “also recorded” stand apart in the source; their conditions may differ. Counter-ions that a name gives are not always drawn.

Legend:
cad-11 mRNA = assay: Northern blot analysis of cad-11 mRNA in cultured endometrial stromal cells; assay type: cell-based, human; details: for stromal cad-11 mRNA levels over time: Example 4C, P4 1 μM, E2 30 nM, DHT 0.1 μM, 0-96 h, P4 effect continued to increase until 96 h; for cad-11 mRNA levels: Example 4B, 24 h culture, P4 0.1-1 μM, E2 30 nm
Procedure: (§1) Endometrial stroma cells were isolated from secretory endometrium as described above. The stroma cells were grown to confluence, washed with PBS, and cultured in DMEM containing charcoal stripped FCS for a further 24 h. The culture medium was removed, and after the cells had been washed twice with PBS, replaced with fresh DMEM containing charcoal stripped FCS. The cells were harvested for either Northern (see Example 5) or Western blot analysis (see Example 6) after 24 h of culture in the presence or absence of steroids in the culture medium P4 (0.1-1 μM), E2 (30 nm), or vehicle (0.1% ethanol).
(§2) Endometrial stromal cells were separated from the glandular epithelium by enzymatic digestion and mechanical dissociation as described above. The endometrial stromal cells were washed once in phenol red-free Dulbecco'e Modified Eagle's medium (DMEM) containing 10% charcoal-stripped fetal bovine serum (FBS) before being resuspended and plated in DMEM containing 25 mM glucose, […] L-glutamine, antibiotics (100 U/ml penicillin, 100 μg/ml streptomycin and 2.5 μg/ml fungizone), and supplemented with 30% charcoal-stripped FBS. The culture medium was replaced 30 min after plating in order to reduce epithelial cell contamination. The purity of the cell cultures was determined by immunocytochemical staining for vimentin, cytokeratin, muscle actin, and factor VIII.
(§3) The stromal cells (passage 2) were grown to confluence, washed with PBS, and cultured in phenol, red-free DMEM supplemented with 10% charcoal-stripped FBS is and containing either progesterone (P4 1 μM), 17β-estradiol (E2, 30 nM), the non-aromatisable androgen dihydrotestosterone (DHT, 0.1 μM) or vehicle (0.1% ethanol). The cells were cultured in the presence or absence of the steroids for 0, 6, 12, 24, 48, 72 or 96 h before being harvested for Northern or Western blot analysis as described in Examples 5 and 6 using the probe described in Example 4A.
To standardise the amounts of total RNA, the blots were also probed with a radiolabelled synthetic oligonucleotide specific for 18S rRNA. Radioautograms were scanned using an LKB laser densitometer. The absorbance values obtained for the cad-11 transcripts were normalised relative to the 18S rDNA absorbance value. Statistical differences between time points and treatments were assessed by the analysis of variance (ANOVA). Differences were considered to be significant for p <0.05.
(§4) To determine whether a combination of steroids was required for maximal cad-11 expression in endometrial stromal cells, the cells (prepared as described above) were cultured in the presence of P4 (1 μM) plus E2 (30 nM), or P4 (1 μM) plus DHT (0.1 μM) for 0, 6, 12, 24, 48, 72 or 96 h before being harvested for Northern or Western blot analysis as described above.
(§5) To determine whether the ability of E2 to potentiate the effects of P4 on stromal cad-11 expression was dose-dependent, the cells were cultured in the presence of vehicle (0.1% ethanol), E2 (30 nM), P4 (1 μM) or P4 (1 μM) plus varying doses of E2 ([…]) for 96 h. 30 nM is approximately equivalent to physiological levels. The cells were then harvested for Northern and Western blot analysis using the procedures described above.
RNA Extraction using an RNAID™ kit (BIO 101, Inc.): • 1. 500 μl cell solution+500 μl of 2M sodium acetate (pH 4.0). • 2. Vortex. • 3. Add 525 μl of chloroform/isoamyl alcohol. • 4. Vortex. • 5. Incubate on ice for 15 minutes. • 6. Spin at 4° C./10,000×g for 20 minutes. • 7. Transfer top phase (RNA rich portion) to a new vial, taking care not to touch the interface and bottom organic solvent part. • 8. Add ½ volume of chloroform/isoamyl alcohol. • 9. Vortex. • 10. Spin 2 min at 4° C./10,000×g. • 11. Transfer top phase to a new tube. • 12. Add 20 μl of RNA Matrix. • 13. Vortex 30 sec. • […].

cad-11 protein = assay: Western blot analysis of cad-11 protein in cultured endometrial stromal cells; assay type: cell-based, human; details: for cad-11 protein expression levels over time: Example 4C, P4 1 μM, E2 30 nM, DHT 0.1 μM, 0-96 h, P4 effect continued to increase until 86 h [sic]
Procedure: as §1, §2, §3, §4, §5
Cell cultures were rinsed three times with PBS and drained. The cells were incubated in 100 μl of cell lysis buffer (Tris HCL, pH 7.5 containing 0.5 NP-40, 0.5 mM CaCl2, and 1.0 mM PMSF) at 4° C. for 30 min on a rocking platform. Cell lysates were collected by scraping plate with a plastic spatula. The cell lysates were centrifuged at 10,000 xg for 20 min, and the supernatant was used in the Western Blot analyses or stored at −70° C. Aliquots from the samples were subjected to SDS polyacrylamide gel electrophoresis under reducing conditions. The stacking gels contained 5% acrylamide, and the separating gels were composed of 7.5% acrylamide. The proteins were electrophoretically transferred from the gels onto nitrocellulose membrane. The nitrocellulose blots were probed with the mouse monoclonal antibody (C11-113H) directed against human cad-11 (from ICOS Corporation, Bothell, Wash.) produced as described in Example 10 below. The Amersham ECL™ system was used to detect antibody bound to antigen.

[1] = test system: cad-11 in the endometrium; assay: Cad-11 immunostaining (HSCORE) of endometrial biopsies after treatment; assay type: in vivo, human; details: for AFTER TREATMENT (HSCORE), cad-11 expression in the endometrium: women with primary habitual abortion and LPD, one line per patient 1-8; for effect of treatment on endometrial cad-11 expression: women with LPD-associated habitual abortion, degree of response variable
Procedure: The intensity of cad-11 immunostaining in the endometrial biopsies may be determined by the semiquantitative HSCORE technique which is routinely used in oncology for cancer cell counts. The HSCORE is a continuous value (from 0-4, respectively), in which a discriminatory level that designates positives and negatives for the test is determined. Typically, a consensus is made between counts carried out by two observers in a blinded fashion employing a double-headed microscope at low and high magnification.
(§6) The presence of cad-11 was examined in endometrial biopsies obtained from women presenting with primary (no prior live birth) habitual abortion in association with luteal phase deficiency (LPD). This group of women, who account for approximately 20% of the women attending the Recurrent Pregnancy Loss Clinic, B.C. Women's Hospital and Health Centre, University of British Columbia, Vancouver, Canada, are routinely treated with progesterone or clomiphene citrate (a nonsteroidal synthetic compound). Biopsy specimens were obtained from these women before and after treatment. Cad-11 expression/production was correlated with pregnancy outcome upon treatment. Present treatment of LPD consists of either vaginal progesterone suppositories or clomiphene citrate, with the dosage being adjusted until a repeat endometrial biopsy is considered to be “in phase” by morphological assessment.
LPD was diagnosed by traditional methods prior to determining cad-11 by immunostaining. To increase the likelihood of including only those individuals with authentic LPD, the criteria for inclusion in this study was two consecutive biopsies with a 3 days of maturation delay based on the first day of the next menses as determined by morphological assessment.
In 16 such patients, cad-11 immunostaining was examined in biopsies obtained before and after treatment with either progesterone (results shown in Table 1A) or clomiphene citrate (results shown in Table 1B). All 16 had return of normal in-phase morphology on subsequent biopsy. The endometrial biopsy specimens were then re-evaluated for cad-11 using immunohistochemical staining. Comparison of staining pattern and intensity was performed using a monoclonal antibody directed against human cadherin-11 and standard immunohistochemical techniques according to the protocol set out in Example 3. The intensity of cad-11 immunostaining in the endometrial biopsies was determined by the semiquantitative HSCORE technique as described above.
For Detection of Cad-11 in Endometrial Biopsy Specimens • Prepare diluent fresh 1% bovine serum albumin (BSA; Sigma Chem Co.)/1% Automation Buffer (AB; ESBE Lab.) (wt/vol).
For paraffin embedded endometrial biopsy specimen sections (5 μm): • 1. Wash tissue specimen thoroughly in phosphate-buffered saline (PBS). • 2. […]

[2] = test system: women presenting with primary habitual abortion and diagnosed with luteal phase deficiency; assay: Pregnancy outcome upon treatment; assay type: in vivo, human; details: one line per patient 1-8
Source text: as §6
However, different intensities of cad-11 immunostaining in the epithelial and stromal component of the endometrium observed in this cohort of women (HSCORES=0-4: Tables 1A and 1B). […] Conversely, a negative HSCORE (0-1) following treatment correlated with a subsequent pregnancy loss (spontaneous abortion).

[3] = Example 4E, P4 1 μM plus E2 0.5-100 nM, 96 h
[4] = Example 4E, with P4 1 μM, 96 h, versus 30 nM E2
[5] = Example 4F, cultured endometrial stromal cells
[6] = Treatment: Progesterone Suppositories

Compound	stromal cad-11 mRNA levels over time (cad-11 mRNA)	cad-11 protein expression levels over time (cad-11 protein)	cad-11 mRNA levels (cad-11 mRNA)	regulation of cad-11 mRNA expression by steroid alone (cad-11 mRNA; [5])	regulation of cad-11 protein expression by steroid alone (cad-11 protein; [5])	effect of treatment on endometrial cad-11 expression [1]	further results
C[C@]12CCC(=O)C[C@@H]1CC[C@@H]1[C@@H]2CC[C@]2(C)[C@@H](O)CC[C@@H]12 [DHT, dihydrotestosterone]	did not significantly increase cad-11 mRNA levels	No significant increase in cad-11 expression levels					
C[C@]12CC[C@@H]3c4ccc(O)cc4CC[C@H]3[C@@H]1CC[C@@H]2O [E2, 17β-estradiol]	did not significantly increase cad-11 mRNA levels	No significant increase in cad-11 expression levels	little effect on cad-11 mRNA levels				potentiation of P4-mediated increase in stromal cad-11 mRNA by increasing doses of E2 (cad-11 mRNA; [3]): progressively enhanced the effects of P4; E2 concentration at which maximum cad-11 mRNA expression level was observed (cad-11 mRNA; Example 4E, with P4 1 μM, 96 h): 30 nM; enhancement of stromal cad-11 mRNA when E2 was increased to 100 nM (cad-11 mRNA; [4]): no further enhancement; potentiation of the progestin-mediated increase in cad-11 mRNA (cad-11 mRNA; [5]): potentiate this effect; potentiation of P4-mediated increase in stromal cad-11 protein by increasing doses of E2 (cad-11 protein; [3]): progressively enhanced the effects of P4; E2 concentration at which maximum cad-11 protein expression level was observed (cad-11 protein; Example 4E, with P4 1 μM, 96 h): 30 nM; enhancement of stromal cad-11 protein when E2 was increased to 100 nM (cad-11 protein; [4]): no further enhancement; potentiation of the progestin-mediated increase in cad-11 protein (cad-11 protein; [5]): potentiate this effect
CC(=O)[C@H]1CC[C@H]2[C@@H]3CC=C4C[C@@H](O)CC[C@]4(C)[C@H]3CC[C@]12C [Pregnenolone]				increased cad-11 expression	increased cad-11 expression		
CC(=O)[C@H]1CC[C@H]2[C@@H]3CCC4=CC(=O)CC[C@]4(C)[C@H]3CC[C@]12C [progesterone]	significant increase in the stromal cad-11 mRNA levels after 24 h	increase in cad-11 expression after 24 h	increased cad-11 mRNA levels in a dose-dependent manner	increased cad-11 expression	increased cad-11 expression	capable of increasing endometrial cad-11 expression	AFTER TREATMENT (HSCORE), cad-11 expression in the endometrium [1, 6]: 3 (positive) HSCORE (2×) and 4 (positive) HSCORE (2×) and 2 (equivocal) HSCORE and 1 (negative) HSCORE (2×) and 0 (negative) HSCORE; PREGNANCY OUTCOME [2, 6]: successful; also recorded: spontaneous; stromal cad-11 protein (cad-11 protein; Example 4B, 24 h culture, P4 0.1-1 μM): induced an increase in stromal cad-11 protein
CCN(CC)CCOc1ccc(C(=C(Cl)c2ccccc2)c2ccccc2)cc1 [clomiphene citrate]						capable of increasing endometrial cad-11 expression	AFTER TREATMENT (HSCORE), cad-11 expression in the endometrium ([1]; Treatment: Clomiphene Citrate): 4 (positive) HSCORE (2×) and 2 (equivocal) HSCORE and 1 (negative) HSCORE (2×) and 0 (negative) HSCORE and 3 (positive) HSCORE (2×); PREGNANCY OUTCOME ([2]; Treatment: Clomiphene Citrate): successful; also recorded: spontaneous
CC(=O)O[C@]1(C(C)=O)CC[C@H]2[C@@H]3C[C@H](C)C4=CC(=O)CC[C@]4(C)[C@H]3CC[C@@]21C [medroxyprogesterone acetate]				increased cad-11 expression	increased cad-11 expression		
